Test results as given in patent US20260133193A1, “COMPOSITIONS AND METHODS FOR TREATING INFLAMMATORY DISEASES” (University of Washington, priority 2018, published 2026).

Assays:
neutrophils = assay: Phagocytosis assay in neutrophils (flow cytometry); type: cell-based, human
Protocol: To determine whether the reciprocal was true, namely, that TLR activation could inhibit phagocytosis of ICs, the uptake of RNase-treated RNP-ICs was analyzed in presence of the TLR7/8 agonist, R848. […] Specifically, neutrophils were stimulated with R848 prior to incubation with RNase-treated RNP-ICs, HAGG, beads or zymosan. The results are expressed as phagocytosis as compared to no R848 added (% of control). […] Finally, to determine if TLR7/8 activation affected the internalization process and/or the binding ability of the ICs, neutrophils were treated with the cytoskeleton inhibitor Cytochalasin B prior to adding the ICs, thus blocking uptake, but not binding. Specifically, neutrophils, treated with or without R848 followed by cytochalasin B (CytoB, 5 μM), were analyzed for binding and uptake of RNP-ICs by flow cytometry.
SLE IgG, SmRNP and heat-aggregated IgG (HAGG) were labeled with Alexa-647 according to manufacturer's protocol (Life Technologies). Neutrophils, or PBMCs, from healthy individual were stimulated with different ICs, FITC-conjugated latex beads or zymosan (100 μg/mL, Life Technologies) for 30 minutes at 37° C. and immediately analyzed for phagocytosis. In blocking experiments, neutrophils were incubated with 0.1 μM TLR7-9 or control iODN (Enzo Life Sciences), CMK (25 μM, Enzo Life Sciences), cytochalasin B (5 M, Sigma) or antibodies directed against CD16, CD32 or CD64 (all used at 10 μg/mL, BioLegend) for 30 minutes before addition of stimuli. In some experiments, R848, at a concentration of 2 μg/mL, or neutrophil supernatant, was added 30 and 90 minutes before addition of the phagocytic stimuli, respectively.

FcgRIIA on monocytes = assay: FcgRIIA and CD11b on monocytes (PBMCs with R848, neutrophils or neutrophil supernatant); type: cell-based, human
Protocol: Since we observed prominent protease-mediated shedding of FcgRIIA in neutrophils, we next asked if activated neutrophils could induce shedding of FcgRIIA in other immune cells. PBMCs were co-incubated with neutrophils (PMNs) in the presence of R848 and a pan-protease inhibitor. Levels of FcgRIIA on monocytes (CD14+), and pDCs (CD304+) were determined by flow cytometry and expressed as FcgRIIA (% of control) as compared to PBMCs incubated in medium in absence of neutrophils. […]
To determine if the loss of monocyte FcgRIIA was mediated through cell-cell interactions or due to a soluble neutrophil-derived factor, we added supernatant from TLR7/8-activated neutrophils to monocytes. Specifically, neutrophil supernatant, derived from non-stimulated (no, n=5) or R848-stimulated (R848, n=9) neutrophils, were added to monocytes in presence of indicated inhibitors (CMK; furin inhibitor, n=5, and Pan; pan-protease inhibitor, n=5) and monocyte FcgRIIA levels analyzed by flow cytometry. […]
Neutrophils and PBMCs were incubated at a 2:1 ratio (500,000 vs 250,000 cells) with the pan-protease inhibitor (1×) for 30 minutes followed by R848 (2 μg/mL) for an additional 60 minutes and analyzed for FcgR levels by flow cytometry. […]

[1] = neutrophils stimulated with R848 before stimuli, vs no R848

With `CCOCc1nc2c(N)nc3ccccc3c2n1CC(C)(C)O` [R848] the “uptake of RNase-treated RNP-ICs and HAGG by neutrophils” value (neutrophils; [1]) was “significantly decreased uptake of ICs as well as heat-aggregated IgG (HAGG)”, the “uptake of beads and zymosan by neutrophils” value (neutrophils; [1]) was “increased uptake of beads and zymosan” and the “binding and uptake of RNP-ICs by neutrophils” value (neutrophils; with or without R848, followed by cytochalasin B 5 μM) was “suppressed both IC-mediated binding and subsequent phagocytosis”. For the same molecule, the “monocyte cell surface CD11b” value (FcgRIIA on monocytes; R848) was “up-regulation of cell surface CD11b” and the “monocyte cell surface FcgRIIA levels” value (FcgRIIA on monocytes; flow cytometry) was “unchanged”.
